Source: US12018021B2 (UCB Biopharma SRL, priority 2018, dated 2024)

These compounds were tested against IgE-Tb / FcεRIα-Y131A-AF488 (Homo sapiens, UniProt P01854) (assay: IgE-Tb / FcεRIα-Y131A-AF488 FRET assay (protocol for examples 1 to 233)). Conditions: examples 1 to 233: 5 nM IgE-Tb, 25 nM FcεRIα-Y131A-AF488, incubated 2 hours at room temperature; read-out: Y131A FRET IC50 range.
Type: binding
Outline: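 Compounds (top final concentration usually 10 μM, 3-fold, 10 points, 2% DMSO) incubated 2 h at room temperature with IgE-Tb (5 nM) and FcεRIα-Y131A-AF488 (25 nM). Background from 200 nM unlabelled receptor subtracted; FRET ratio 520/495 nm after 330 nm excitation gave percent inhibition, fitted four-parameter for IC50.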

Chain of IgE-Tb / FcεRIα-Y131A-AF488 (P01854 1-427 limits assumed, stated change not applied): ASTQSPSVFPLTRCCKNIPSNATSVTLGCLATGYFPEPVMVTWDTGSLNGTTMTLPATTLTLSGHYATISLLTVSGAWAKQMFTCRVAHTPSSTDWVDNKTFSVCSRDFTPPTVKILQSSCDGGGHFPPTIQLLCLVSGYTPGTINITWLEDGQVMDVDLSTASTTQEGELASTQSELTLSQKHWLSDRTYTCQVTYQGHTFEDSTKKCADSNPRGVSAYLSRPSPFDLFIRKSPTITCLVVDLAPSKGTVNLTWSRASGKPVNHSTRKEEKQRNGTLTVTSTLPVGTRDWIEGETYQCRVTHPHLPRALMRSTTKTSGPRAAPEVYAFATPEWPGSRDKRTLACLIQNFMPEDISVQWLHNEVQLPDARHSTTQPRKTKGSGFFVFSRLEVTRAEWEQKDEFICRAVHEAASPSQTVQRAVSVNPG

Row | Compound | IC50 [nM]
1 | Cc1ccc(Nc2c(NC3CCc4sc(NC(=O)C5CC5)c(C(=O)NCC5CC5)c4C3)c(=O)c2=O)cc1 (stereo not shown) [Example 137, 2-(Cyclopropanecarbonylamino)-N-(cyclopropylmethyl)-5-[[2-(4-methylanilino)-3,4-dioxo-cyclobuten-1-yl]amino]-4,5,6,7-tetrahydrobenzothiophene-3-carboxamide] | < 1000
2 | O=C(NCC1CC1)c1c(NC(=O)C2CC2)sc2c1C[C@@H](n1cnnc1Nc1ccccn1)CC2 [Example 138, (5S)-2-(Cyclopropanecarbonylamino)-N-(cyclopropylmethyl)-5-[3-(2-pyridylamino)-1,2,4-triazo-4-yl]-4,5,6,7-tetrahydrobenzothiophene-3-carboxamide] | < 1000
3 | CC(=O)Nc1nccn1[C@H]1CCc2sc(NC(=O)C3CC3)c(C(=O)NCC3CC3)c2C1 [Example 139, (5S)-5-(2-Acetamidoimidazol-1-yl)-2-(cyclopropanecarbonylamino)-N-(cyclopropylmethyl)-4,5,6,7-tetrahydrobenzothiophene-3-carboxamide] | < 1000
4 | O=C(NCC1CC1)c1c(NC(=O)C2CC2)sc2c1CC(n1nncc1Nc1cccnc1)CC2 (stereo not shown) [Example 141, 2-(Cyclopropanecarbonylamino)-N-(cyclopropylmethyl)-5-[5-(3-pyridylamino)triazo-1-yl]-4,5,6,7-tetrahydrobenzothiophene-3-carboxamide] | < 1000
5 | CCNC(=S)NC1CCc2sc(NC(=O)C3CC3)c(C(=O)NCC3CC3)c2C1 (stereo not shown) [Example 142, 2-(Cyclopropanecarbonylamino)-N-(cyclopropylmethyl)-5-(ethylcarbamothioylamino)-4,5,6,7-tetrahydrobenzothiophene-3-carboxamide] | < 1000
6 | O=C(NCC1CC1)c1c(NC(=O)C2CC2)sc2c1C[C@@H](n1cnnc1N[C@H]1CCOC1)CC2 [Example 143, (5S)-2-(cyclopropanecarbonylamino)-N-(cyclopropylmethyl)-5-[3-[[(3S)-tetrahydrofuran-3-yl]amino]-1,2,4-triazol-4-yl]-4,5,6,7-tetrahydrobenzothiophene-3-carboxamide] | < 1000
7 | CCNC(=NC#N)NC1CCc2sc(NC(=O)C3CC3)c(C(=O)NCC3CC3)c2C1 (stereo not shown) [Example 144, 5-[[N′-Cyano-N-ethyl-carbamimidoyl]amino]-2-(cyclopropanecarbonylamino)-N-(cyclopropylmethyl)-4,5,6,7-tetrahydrobenzothiophene-3-carboxamide] | < 1000
8 | CCN/C(=N\[N+](=O)[O-])N[C@H]1CCc2sc(NC(=O)C3CC3)c(C(=O)NCC3CC3)c2C1 [Example 145, (5S)-2-(Cyclopropanecarbonylamino)-N-(cyclopropylmethyl)-5-[[(E)-N-ethyl-N′-nitro-carbamimidoyl]amino]-4,5,6,7-tetrahydrobenzothiophene-3-carboxamide] | < 1000
9 | CCN/C(=N\[N+](=O)[O-])N[C@@H]1CCc2sc(NC(=O)C3CC3)c(C(=O)NCC3CC3)c2C1 [Example 146, (5R)-2-(Cyclopropanecarbonylamino)-N-(cyclopropylmethyl)-5-[[(E)-N-ethyl-N′-nitro-carbamimidoyl]amino]-4,5,6,7-tetrahydrobenzothiophene-3-carboxamide] | 10000 to 50000
10 | CCNc1nccn1[C@H]1CCc2sc(NC(=O)C3CC3)c(C(=O)NCC3CC3)c2C1 [Example 147, (5S)-2-(Cyclopropanecarbonylamino)-N-(cyclopropylmethyl)-5-[2-(ethylamino)imidazol-1-yl]-4,5,6,7-tetrahydrobenzothiophene-3-carboxamide] | < 1000
11 | Cc1noc(C)c1Nc1nncn1[C@H]1CCc2sc(NC(=O)C3CC3)c(C(=O)NCC3CC3)c2C1 [Example 148, (5S)-2-(Cyclopropanecarbonylamino)-N-(cyclopropylmethyl)-5-[3-[(3,5-dimethylisoxazol-4-yl)amino]-1,2,4-triazol-4-yl]-4,5,6,7-tetrahydrobenzothiophene-3-carboxamide] | < 1000
12 | CCOC(=O)N=C(Nc1ccc(C)cc1)NC1CCc2sc(NC(=O)C3CC3)c(C(=O)NCC3CC3)c2C1 (stereo not shown) [Example 149, ethyl N-[[[2-(cyclopropanecarbonylamino)-3-(cyclopropylmethylcarbamoyl)-4,5,6,7-tetrahydrobenzothiophen-5-yl]amino]-(4-methylanilino)methylene]carbamate] | < 1000
13 | Cc1ncccc1Nc1nccn1[C@H]1CCc2sc(NC(=O)C3CC3)c(C(=O)NCC3CC3)c2C1 [Example 150, (5S)-2-(Cyclopropanecarbonylamino)-N-(cyclopropylmethyl)-5-[2-[(2-methyl-3-pyridyl)amino]imidazol-1-yl]-4,5,6,7-tetrahydrobenzothiophene-3-carboxamide] | < 1000
14 | CCNC(=C[N+](=O)[O-])NC1CCc2sc(NC(=O)C3CC3)c(C(=O)NCC3CC3)c2C1 (stereo not shown) [Example 151, 2-(cyclopropanecarbonylamino)-N-(cyclopropylmethyl)-5-[[1-(ethylamino)-2-nitro-vinyl]amino]-4,5,6,7-tetrahydrobenzothiophene-3-carboxamide] | 1000 to 10000
15 | Cc1cc(=O)[nH]c(NC2CCc3sc(NC(=O)C4CC4)c(C(=O)NCC4CC4)c3C2)n1 (stereo not shown) [Example 152, 2-(Cyclopropanecarbonylamino)-N-(cyclopropylmethyl)-5-[(4-methyl-6-oxo-1H-pyrimidin-2-yl)amino]-4,5,6,7-tetrahydrobenzothiophene-3-carboxamide] | < 1000
16 | CNC(=O)c1ncn([C@H]2CCc3sc(NC(=O)C4CC4)c(C(=O)NCC4CC4)c3C2)c1N [Example 153, 5-amino-1-[(5S)-2-cyclopropaneamido-3-[(cyclopropylmethyl)carbamoyl]-4,5,6,7-tetrahydro-1-benzothiophen-5-yl]-N-methyl-1H-imidazole-4-carboxamide] | < 1000
17 | NC(=O)c1ncn([C@H]2CCc3sc(NC(=O)C4CC4)c(C(=O)NCC4CC4)c3C2)c1N [Example 154, 5-amino-1-[(5S)-2-cyclopropaneamido-3-[(cyclopropylmethyl)carbamoyl]-4,5,6,7-tetrahydro-1-benzothiophen-5-yl]-1H-imidazole-4-carboxamide] | < 1000
18 | O=C(NCC1CC1)c1c(NC(=O)C2CC2)sc2c1CC(n1ccnc1Nc1ccccc1)CC2 (stereo not shown) [Example 155, 5-(2-Anilinoimidazol-1-yl)-2-(cyclopropanecarbonylamino)-N-(cyclopropylmethyl)-4,5,6,7-tetrahydrobenzothiophene-3-carboxamide] | < 1000
19 | CCNC(=NC#N)N[C@H]1CCc2sc(NC(=O)C3CC3)c(C(=O)NCC3CC3)c2C1 [Example 156, (5S)-5-[[N′-cyano-N-ethyl-carbamimidoyl]amino]-2-(cyclopropanecarbonylamino)-N-(cyclopropylmethyl)-4,5,6,7-tetrahydrobenzothiophene-3-carboxamide] | < 1000
20 | CCNC(=O)NC1CCc2sc(NC(=O)C3CC3)c(C(=O)NCC3CC3)c2C1 (stereo not shown) [Example 157, 2-(Cyclopropanecarbonylamino)-N-(cyclopropylmethyl)-5-(ethylcarbamoylamino)-4,5,6,7-tetrahydrobenzothiophene-3-carboxamide] | 1000 to 10000
21 | O=C(NCC1CC1)c1c(NC(=O)C2CC2)sc2c1CC(Nc1cc(=O)cc[nH]1)CC2 (stereo not shown) [Example 158, 2-(Cyclopropanecarbonylamino)-N-(cyclopropylmethyl)-5-[(4-oxo-1H-pyridin-2-yl)amino]-4,5,6,7-tetrahydrobenzothiophene-3-carboxamide] | < 1000
22 | Cc1nnc(-c2ccc(N[C@H]3CCc4sc(NC(=O)C5CC5)c(C(=O)NCC5CC5)c4C3)cn2)o1 [Example 159, (5S)-2-(cyclopropanecarbonylamino)-N-(cyclopropylmethyl)-5-[[6-(5-methyl-1,3,4-oxadiazol-2-yl)-3-pyridyl]amino]-4,5,6,7-tetrahydrobenzothiophene-3-carboxamide] | < 1000
23 | CCNc1nnnn1C1CCc2sc(NC(=O)C3CC3)c(C(=O)NCC3CC3)c2C1 (stereo not shown) [Example 160, 2-(Cyclopropanecarbonylamino)-N-(cyclopropylmethyl)-5-[5-(ethylamino)tetrazol-1-yl]-4,5,6,7-tetrahydrobenzothiophene-3-carboxamide] | < 1000
24 | O=C(NCC1CC1)c1c(NC(=O)C2CC2)sc2c1CC(Nc1nc[nH]n1)CC2 (stereo not shown) [Example 161, 2-(Cyclopropanecarbonylamino)-N-(cyclopropylmethyl)-5-(1H-1,2,4-triazol-3-ylamino)-4,5,6,7-tetrahydrobenzothiophene-3-carboxamide] | < 1000
25 | Cc1cc(Nc2nncn2[C@@H]2CCc3sc(NC(=O)C4CC4)c(C(=O)NCC4CC4)c3C2)n(C)n1 [Example 162, (5R)-2-(Cyclopropanecarbonylamino)-N-(cyclopropylmethyl)-5-[3-[(2,5-dimethylpyrazol-3-yl)amino]-1,2,4-triazol-4-yl]-4,5,6,7-tetrahydrobenzothiophene-3-carboxamide] | < 1000
26 | Cn1cc(-n2cnnc2N[C@H]2CCc3sc(NC(=O)C4CC4)c(C(=O)NCC4CC4)c3C2)cn1 [Example 163, (5S)-2-(Cyclopropanecarbonylamino)-N-(cyclopropylmethyl)-5-[[4-(1-methylpyrazol-4-yl)-1,2,4-triazol-3-yl]amino]-4,5,6,7-tetrahydrobenzothiophene-3-carboxamide] | 1000 to 10000
27 | CCOC(=O)c1cn([C@H]2CCc3sc(NC(=O)C4CC4)c(C(=O)NCC4CC4)c3C2)cn1 [Example 164, ethyl 1-[(5S)-2-cyclopropaneamido-3-[(cyclopropylmethyl)carbamoyl]-4,5,6,7-tetrahydro-1-benzothiophen-5-yl]-1H-imidazole-4-carboxylate] | < 1000
28 | O=C(NCC1CC1)c1c(NC(=O)C2CC2)sc2c1CC(Nc1nncn1-c1ccc(F)cc1)CC2 (stereo not shown) [Example 165, 2-(Cyclopropanecarbonylamino)-N-(cyclopropylmethyl)-5-[[4-(4-fluorophenyl)-1,2,4-triazol-3-yl]amino]-4,5,6,7-tetrahydrobenzothiophene-3-carboxamide] | < 1000
